The text below walks through data of US9546164B2 (GENENTECH, INC., priority 2013, dated 2017).

Counter-ions that a name gives are not always drawn. Like-named read-outs stand apart in the source and are kept apart here.

In data set [1] the target is T1, NaV1.5 (Homo sapiens (Human), UniProt Q14524).
Method: (§1) The following patch voltage clamp electrophysiology studies were performed on representative compounds of the invention using human embryonic kidney cells (HEK), permanently transfected with an expression vector containing the full-length cDNA coding for the desired human sodium channel α-subunit, grown in culture media containing 10% FBS, 1% PSG, and 0.5 mg/mL G418 at 37° C. with 5% CO2. […] The β1 subunit was coexpressed in both the NaV1.7 and NaV1.5 cell lines.
(§2) Sodium currents were measured rising the patch clamp technique in the whole-cell configuration using either a PatchXpress automated voltage clamp or manually using an Axopatch 200B (Axon Instruments) or Model 2400 (A-M systems) amplifier. […] The pipette was filled with a solution comprised of: 5 mM NaCl, 10 mM CsCl, 120 mM CsF, 0.1 mM CaCl2, 2 mM MgCl2, 10 mM HEPES, 10 mM EGTA; and adjusted to pH 7.2 with CsOH. The external solution had the following composition: 140 mM NaCl, 5 mM KCl, 2 mM CaCl2, 1 mM MgCl2, 10 mM HEPES; and adjusted to pH 7.4 with NaOH. In some studies, the external sodium was reduced by equimolar replacement with choline. Osmolality in the CsF internal and NaCl external solutions was adjusted to 300 mOsm/kg and 310 mOsm/kg with glucose, respectively. All recordings were performed at ambient temperature in a bath chamber with a volume of 150 μL. Control sodium currents were measured in 0.5% DMSO. Controls and representative compounds of the invention were applied to the recording chamber through a 4-pinch or 8-pinch valve bath perfusion system manufactured by ALA Scientific Instruments.
(§3) Currents were recorded at 40 kHz sampling frequency, filtered at 5 Hz, and stored using a Digidata-1322A analogue/digital interface with the pClamp software (Axon instruments). Series resistance compensation was applied (60-80%). […] All statistics in this study are given as mean±SD.
(§4) The membrane potential was maintained at a voltage where reactivation of the channel is complete (which was −60 mV for both NaV1.7 and NaV1.5). The voltage is then stepped back to a very negative (Vhold=150 mV) voltage for 20 ms and then a test poise is applied to quantify the compound block. The 20 ms brief repolarization was long enough for compound-free channels to completely recover from fast inactivation, but the compound-bound channels recovered more slowly such that negligible recovery could occur during this interval. The percent decrease in sodium current following wash-on of compound was taken as the percent block of sodium channels.
The target of the next data set is NaV1.7 (Homo sapiens (Human), UniProt Q15858). The data set can be described thus: Patch voltage clamp electrophysiological assay (EP), NaV1.7. The conditions noted are these: HEK-293 cells stably expressing human NaV1.7 with β1 subunit, whole-cell patch clamp, holding −60 mV. In kind it is cell-based. How it is done:
Electrophysiological Assay (EP) (In vitro Assay)
Control sodium currents were measured in 0.5% DMSO.
Series resistance compensation was applied (60-80%).
Background: The patch-clamp technique gives a direct electrical read-out from membranes.

The target in data set [2] is T1, NaV1.5. The data set can be described thus: Patch voltage clamp electrophysiological assay (EP), NaV1.5.
Method: as §1, §2, §3, §4
Another data set deals with hNav1.7 (Homo sapiens (Human), UniProt Q15858). The data set can be described thus: Tritiated sulfonamide competitive binding to membranes from cells expressing hNav1.7 and the β1 subunit.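 Also: Filter-bound radioactivity counted by liquid scintillation, nonspecific binding defined with excess unlabelled ligand, IC50 fitted to percent inhibition of specific binding.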
Setting [3] is: read-out: NaV1.5 EP, HEK-293 cells stably expressing human NaV1.5 with β1 subunit, whole-cell patch clamp, holding −60 mV.
The mark [4] stands for this setting: read-out: Ligand Binding Assay, 100 pM [3H]compound, membranes with hNav1.7 and β1 subunit, 18 h, room temperature.

hNav1.7, sequence (Q15858 other isoform, or with tags, fused parts or gaps): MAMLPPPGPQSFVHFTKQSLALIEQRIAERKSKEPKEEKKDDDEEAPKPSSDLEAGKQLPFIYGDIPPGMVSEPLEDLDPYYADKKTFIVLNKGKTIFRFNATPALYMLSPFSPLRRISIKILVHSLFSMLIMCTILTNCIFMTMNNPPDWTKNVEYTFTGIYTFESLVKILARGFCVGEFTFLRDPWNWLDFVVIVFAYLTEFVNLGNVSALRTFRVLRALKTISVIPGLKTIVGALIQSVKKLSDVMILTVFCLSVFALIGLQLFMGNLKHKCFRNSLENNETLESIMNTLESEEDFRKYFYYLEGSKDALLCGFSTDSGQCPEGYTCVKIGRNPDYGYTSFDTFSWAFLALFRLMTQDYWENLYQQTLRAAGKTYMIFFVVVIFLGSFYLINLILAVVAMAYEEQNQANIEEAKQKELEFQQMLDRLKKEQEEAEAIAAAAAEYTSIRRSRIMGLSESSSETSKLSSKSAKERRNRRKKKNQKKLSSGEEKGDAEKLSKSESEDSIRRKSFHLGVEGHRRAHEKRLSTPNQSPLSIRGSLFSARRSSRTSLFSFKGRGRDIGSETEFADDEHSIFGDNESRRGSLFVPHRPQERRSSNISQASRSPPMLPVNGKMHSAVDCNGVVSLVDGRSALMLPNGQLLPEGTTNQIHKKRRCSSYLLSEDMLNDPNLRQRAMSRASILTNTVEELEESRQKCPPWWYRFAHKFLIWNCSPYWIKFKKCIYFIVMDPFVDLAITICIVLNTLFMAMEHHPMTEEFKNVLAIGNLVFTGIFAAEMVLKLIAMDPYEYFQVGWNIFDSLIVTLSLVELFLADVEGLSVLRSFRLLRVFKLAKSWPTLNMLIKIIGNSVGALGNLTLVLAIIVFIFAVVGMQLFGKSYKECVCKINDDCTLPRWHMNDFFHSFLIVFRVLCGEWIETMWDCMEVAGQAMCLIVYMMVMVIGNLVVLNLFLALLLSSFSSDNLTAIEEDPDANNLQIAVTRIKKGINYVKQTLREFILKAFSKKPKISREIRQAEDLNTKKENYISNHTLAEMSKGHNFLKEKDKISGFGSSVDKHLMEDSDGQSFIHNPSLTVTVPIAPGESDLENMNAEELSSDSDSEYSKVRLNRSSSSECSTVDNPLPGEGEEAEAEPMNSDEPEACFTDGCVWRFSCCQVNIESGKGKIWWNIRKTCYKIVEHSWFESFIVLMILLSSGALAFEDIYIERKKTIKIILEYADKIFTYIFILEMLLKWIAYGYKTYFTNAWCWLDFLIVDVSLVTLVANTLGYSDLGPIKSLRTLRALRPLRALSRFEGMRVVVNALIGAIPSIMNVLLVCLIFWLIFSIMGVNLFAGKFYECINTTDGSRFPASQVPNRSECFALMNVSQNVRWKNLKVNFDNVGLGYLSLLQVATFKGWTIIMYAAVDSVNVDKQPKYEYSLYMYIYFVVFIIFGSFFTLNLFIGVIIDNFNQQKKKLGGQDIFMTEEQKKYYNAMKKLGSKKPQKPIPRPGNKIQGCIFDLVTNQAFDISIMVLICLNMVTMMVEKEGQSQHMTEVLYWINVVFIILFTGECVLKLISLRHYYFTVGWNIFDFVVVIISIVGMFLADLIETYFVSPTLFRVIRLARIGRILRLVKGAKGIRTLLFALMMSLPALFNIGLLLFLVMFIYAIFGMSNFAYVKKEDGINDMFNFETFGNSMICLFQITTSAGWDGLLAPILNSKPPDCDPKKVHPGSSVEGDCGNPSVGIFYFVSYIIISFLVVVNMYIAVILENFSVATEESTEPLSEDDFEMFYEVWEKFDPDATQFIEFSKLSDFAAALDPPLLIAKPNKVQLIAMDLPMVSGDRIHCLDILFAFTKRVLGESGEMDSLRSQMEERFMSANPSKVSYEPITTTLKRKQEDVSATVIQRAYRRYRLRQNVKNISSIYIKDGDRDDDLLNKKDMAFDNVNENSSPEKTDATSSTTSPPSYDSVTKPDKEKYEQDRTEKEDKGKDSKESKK
hNav1.7, sequence (Q07699 19-218 partner): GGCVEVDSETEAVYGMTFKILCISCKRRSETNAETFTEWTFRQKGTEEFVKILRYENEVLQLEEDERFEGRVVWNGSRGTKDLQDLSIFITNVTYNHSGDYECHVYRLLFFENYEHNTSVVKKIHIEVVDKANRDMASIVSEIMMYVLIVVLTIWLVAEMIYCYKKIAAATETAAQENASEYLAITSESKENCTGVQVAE
NaV1.7, sequence (Q15858 other isoform, or with tags, fused parts or gaps): as the sequence (Q15858 other isoform, or with tags, fused parts or gaps) above
NaV1.7, sequence (Q07699 19-218 partner): as the sequence (Q07699 19-218 partner) above
T1 sequence (Q14524 whole entry): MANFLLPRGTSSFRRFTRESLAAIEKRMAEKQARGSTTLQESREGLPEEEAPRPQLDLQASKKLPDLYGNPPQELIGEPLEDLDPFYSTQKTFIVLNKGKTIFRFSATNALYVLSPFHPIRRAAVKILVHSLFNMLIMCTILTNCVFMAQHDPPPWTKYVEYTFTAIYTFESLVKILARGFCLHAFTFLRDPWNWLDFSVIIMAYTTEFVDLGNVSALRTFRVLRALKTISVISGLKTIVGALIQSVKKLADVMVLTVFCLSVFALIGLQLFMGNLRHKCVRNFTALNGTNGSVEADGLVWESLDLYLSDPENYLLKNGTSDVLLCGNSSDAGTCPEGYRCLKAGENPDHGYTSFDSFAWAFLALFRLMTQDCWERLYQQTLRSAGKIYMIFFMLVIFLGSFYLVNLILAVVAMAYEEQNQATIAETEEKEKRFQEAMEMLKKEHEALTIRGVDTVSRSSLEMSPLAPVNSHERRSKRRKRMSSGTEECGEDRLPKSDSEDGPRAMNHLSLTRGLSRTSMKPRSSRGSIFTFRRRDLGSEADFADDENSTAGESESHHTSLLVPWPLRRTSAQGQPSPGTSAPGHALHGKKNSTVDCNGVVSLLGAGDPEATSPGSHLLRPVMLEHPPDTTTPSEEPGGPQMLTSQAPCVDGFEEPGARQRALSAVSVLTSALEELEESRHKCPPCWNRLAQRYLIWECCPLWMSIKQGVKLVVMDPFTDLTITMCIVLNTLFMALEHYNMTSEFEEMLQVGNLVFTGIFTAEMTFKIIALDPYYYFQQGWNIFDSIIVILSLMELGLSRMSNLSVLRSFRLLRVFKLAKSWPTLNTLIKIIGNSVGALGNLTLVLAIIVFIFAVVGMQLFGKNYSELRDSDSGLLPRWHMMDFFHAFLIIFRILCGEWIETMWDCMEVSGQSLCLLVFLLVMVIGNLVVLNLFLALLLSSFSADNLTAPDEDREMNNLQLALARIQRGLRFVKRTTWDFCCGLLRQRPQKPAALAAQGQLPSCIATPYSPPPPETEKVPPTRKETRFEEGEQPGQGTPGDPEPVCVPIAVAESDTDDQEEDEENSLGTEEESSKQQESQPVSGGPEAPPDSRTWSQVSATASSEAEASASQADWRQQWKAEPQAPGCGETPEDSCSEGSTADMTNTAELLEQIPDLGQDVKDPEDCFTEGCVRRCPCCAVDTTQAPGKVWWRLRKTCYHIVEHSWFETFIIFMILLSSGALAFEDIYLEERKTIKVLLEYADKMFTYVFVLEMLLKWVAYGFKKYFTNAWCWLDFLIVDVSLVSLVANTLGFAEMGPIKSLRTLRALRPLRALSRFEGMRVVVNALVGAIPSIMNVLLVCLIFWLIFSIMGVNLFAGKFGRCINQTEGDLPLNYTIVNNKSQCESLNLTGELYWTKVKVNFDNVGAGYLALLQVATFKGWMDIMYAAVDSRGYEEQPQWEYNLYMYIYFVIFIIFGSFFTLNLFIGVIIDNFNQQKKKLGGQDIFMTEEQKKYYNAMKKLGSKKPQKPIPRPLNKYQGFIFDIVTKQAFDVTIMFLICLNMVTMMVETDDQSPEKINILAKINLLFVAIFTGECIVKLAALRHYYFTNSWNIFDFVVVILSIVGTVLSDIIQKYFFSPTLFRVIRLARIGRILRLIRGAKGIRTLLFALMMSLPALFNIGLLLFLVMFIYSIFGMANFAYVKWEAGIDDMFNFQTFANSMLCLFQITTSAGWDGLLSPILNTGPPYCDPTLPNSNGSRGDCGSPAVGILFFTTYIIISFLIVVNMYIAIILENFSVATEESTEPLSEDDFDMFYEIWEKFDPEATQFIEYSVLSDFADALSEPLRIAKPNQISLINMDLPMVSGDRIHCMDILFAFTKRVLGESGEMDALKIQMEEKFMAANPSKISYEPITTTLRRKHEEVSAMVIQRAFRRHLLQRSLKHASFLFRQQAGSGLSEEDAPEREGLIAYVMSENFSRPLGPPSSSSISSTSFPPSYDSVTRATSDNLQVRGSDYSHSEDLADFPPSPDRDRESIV

At NaV1.5 [1], `O=C(NS(=O)(=O)N1CCC1)c1cc(C2CC2)c(OCC2CC3CCC(C2)N3C(c2ccccc2)c2ccccc2)cc1F` (stereo not shown) [Example 49, N-(azetidin-1-ylsulfonyl)-4-((8-benzhydryl-8-azabicyclo[3.2.1]-octan-3-yl)methoxy)-5-cyclopropyl-2-fluorobenzamide] yielded an IC50 of 199 nM.

Regarding `CS(=O)(=O)NC(=O)c1cc(C2CC2)c(OCC2CCN(Cc3cc(F)cc(C(F)(F)F)c3)CC2)cc1F` [Example 228, 5-Cyclopropyl-2-fluoro-4-((1-(3-fluoro-5-(trifluoromethyl)benzyl)piperidin-4-yl)methoxy)-N-(methylsulfonyl)benzamide], the IC50 against NaV1.7 is 31 nM; on NaV1.5 [2] (setting [3]) it was 4100 nM; at hNav1.7 (setting [4]) it was 5.1 nM.

For the compound `CC(C)(c1cc(Cl)cc(Cl)c1)N1CCC[C@@H](Oc2cc(F)c(C(=O)NS(=O)(=O)C3CC3)cc2C2CC2)C1` [Example 495, (R)-5-cyclopropyl-N-(cyclopropylsulfonyl)-4-((1-(2-(3,5-dichlorophenyl)propan-2-yl)oxy)-2-fluorobenzamide, trifluoroacetic acid salt], the values for the IC50 against NaV1.7, at NaV1.5 [2] (setting [3]) and on hNav1.7 (setting [4]) were 0.2 nM, 15.4 nM and 4.4 nM, respectively.

For the compound `O=C(NS(=O)(=O)N1CCC1)c1cc(C2CC2)c(O[C@@H]2CCCN(Cc3ccc(F)cc3Cl)C2)cc1F` [Example 6, (R)—N-(azetidin-1-ylsulfonyl)-4-((1-(2-chloro-4-fluorobenzyl)piperidin-3-yl)oxy)-5-cyclopropyl-2-fluoroenzamide], the IC50 against NaV1.7 was 0.9 nM; on NaV1.5 [2] it was 33.1 nM; at hNav1.7, 3 nM.

Regarding `CS(=O)(=O)NC(=O)c1cc(C2CC2)c(O[C@@H]2CCCN(Cc3ccc(F)cc3Cl)C2)cc1F` [Example 312, (R)-4-((1-(2-chloro-4-fluorobenzyl)piperidin-3-yl)oxy)-5-cyclopropyl-2-fluoro-N-(methylsulfonyl)benzamide], the IC50 was below 1 nM against NaV1.7, 310 nM at NaV1.5 [2] (setting [3]) and 2.2 nM at hNav1.7 (setting [4]).

With `CS(=O)(=O)NC(=O)c1cc(C2CC2)c(OCC2CCN(Cc3cc(Cl)cc(Cl)c3C#N)CC2)cc1F` [Example 594, 5-Cyclopropyl-4-((1-(3,5-dichloro-2-cyanobenzyl)piperidin-4-yl)methoxy)-2-fluoro-N-(methylsulfonyl)benzamide], the IC50 against NaV1.7 stood at 8.4 nM; at NaV1.5 [2] (setting [3]), 623 nM; on hNav1.7 (setting [4]) it was 137 nM.

On to `CCS(=O)(=O)NC(=O)c1cc(C2CC2)c(OCC2CCN([C@@H](c3cc(Cl)cc(Cl)c3)C(C)(C)OC)CC2)cc1F` (single isomer, unassigned) [Example 208], for which the IC50 came out at 3 nM on NaV1.7, 13 nM at NaV1.5 [2] (setting [3]) and 1.6 nM on hNav1.7 (setting [4]).

As for `O=C(NS(=O)(=O)C1CC1)c1cc(C2CC2)c(OCC2CCN(Cc3cc(Cl)cc(Cl)c3)CC2)cc1F` [Example 259, 5-Cyclopropyl-N-(cyclopropylsulfonyl)-4-((1-(3,5-dichlorobenzyl)piperidin-4-yl)methoxy)-2-fluorobenzamide], the IC50 against NaV1.7 stood at 23 nM; on NaV1.5 [2] (setting [3]), 110 nM; on hNav1.7 (setting [4]), 2.2 nM.

Turning to `C[C@@H](c1cc(Cl)cc(Cl)c1)N1CCC(COc2cc(F)c(C(=O)NS(C)(=O)=O)cc2C2CC2)CC1` [Example 100, (S)-5-Cyclopropyl-4-((1-(1-(3,5-dichlorophenyl)ethyl)piperidin-4-yl)methoxy)-2-fluoro-N-(methylsulfonyl)benzamide], the results for the IC50 on NaV1.7, on NaV1.5 [2] (setting [3]) and on hNav1.7 (setting [4]) were 5.8 nM, 552 nM and 4.19 nM, respectively.
